Columns and labels:
Rattus norvegicus = species: Rattus norvegicus; assay: Ex vivo inhibition of FAAH activity in rat brain after 16 hrs; type: functional
[1] = biological target: T1, Fatty-acid amide hydrolase 1 (Rattus norvegicus, UniProt P97612)
T1 sequence (P97612 whole entry): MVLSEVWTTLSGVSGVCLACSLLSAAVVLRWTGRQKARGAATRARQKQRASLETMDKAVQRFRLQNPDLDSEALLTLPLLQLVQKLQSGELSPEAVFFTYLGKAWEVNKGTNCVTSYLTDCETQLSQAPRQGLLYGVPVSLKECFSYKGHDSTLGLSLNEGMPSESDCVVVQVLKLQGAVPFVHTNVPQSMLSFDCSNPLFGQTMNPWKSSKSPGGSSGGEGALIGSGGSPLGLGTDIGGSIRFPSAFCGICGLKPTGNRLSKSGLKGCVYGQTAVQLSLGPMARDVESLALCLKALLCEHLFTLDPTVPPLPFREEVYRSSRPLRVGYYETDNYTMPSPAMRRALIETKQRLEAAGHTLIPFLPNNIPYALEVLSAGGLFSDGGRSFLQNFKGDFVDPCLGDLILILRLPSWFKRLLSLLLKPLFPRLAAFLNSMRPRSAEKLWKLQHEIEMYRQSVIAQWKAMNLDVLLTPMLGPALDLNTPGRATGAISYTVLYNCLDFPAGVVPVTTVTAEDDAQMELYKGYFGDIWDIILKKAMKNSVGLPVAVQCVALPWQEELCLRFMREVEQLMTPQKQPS

[2] = substrate: CCCCCCCC/C=C\CCCCCCCC(N)=O; assay: Activity of FAAH

## NC(=O)c1cccc(-c2cccc(OC(=O)NC3CCCCC3)c2)c1 [URB-597]
Rattus norvegicus
  inhibition (INH): 90%

## O=C1O/C(=C/Br)CCC1c1cccc2ccccc12 (stereo not drawn) [BROMOENOL LACTONE]
[1]
  IC50: 800 nM

B1: Fatty-acid amide hydrolase 1 (Homo sapiens), O00519 (protein)
chain: MVQYELWAALPGASGVALACCFVAAAVALRWSGRRTARGAVVRARQRQRAGLENMDRAAQRFRLQNPDLDSEALLALPLPQLVQKLHSRELAPEAVLFTYVGKAWEVNKGTNCVTSYLADCETQLSQAPRQGLLYGVPVSLKECFTYKGQDSTLGLSLNEGVPAECDSVVVHVLKLQGAVPFVHTNVPQSMFSYDCSNPLFGQTVNPWKSSKSPGGSSGGEGALIGSGGSPLGLGTDIGGSIRFPSSFCGICGLKPTGNRLSKSGLKGCVYGQEAVRLSVGPMARDVESLALCLRALLCEDMFRLDPTVPPLPFREEVYTSSQPLRVGYYETDNYTMPSPAMRRAVLETKQSLEAAGHTLVPFLPSNIPHALETLSTGGLFSDGGHTFLQNFKGDFVDPCLGDLVSILKLPQWLKGLLAFLVKPLLPRLSAFLSNMKSRSAGKLWELQHEIEVYRKTVIAQWRALDLDVVLTPMLAPALDLNAPGRATGAVSYTMLYNCLDFPAGVVPVTTVTAEDEAQMEHYRGYFGDIWDKMLQKGMKKSVGLPVAVQCVALPWQEELCLRFMREVERLMTPEKQSS
[2]
  Km: 5 µM
